Drawing on patent US10993938B2 (priority 2017, dated 2021), this text covers EC50 and CC50 for one compound.

Data set [1] relates to HSV. As to the kind of experiment: Virus inhibition activity assay based on cytopathic effects (neutral red), HSV. The class given is cell-based. As to conditions: read-out: HSV (EC50) μM. (In general: Damage to the host cells serves as the signal in cytopathic effect assays.)
Data set [2] relates to HIV. Description: microbe, parasite or virus in culture. The class given is cell-based. Conditions: Human immunodeficiency virus 1, read-out: HIV (EC50) μM.
The test system of data set [3] is H7N9. As to the kind of experiment: microbe, parasite or virus in culture. As to conditions: Influenza A virus, H7N9, read-out: H7N9 (EC50) μM. The format is cell-based.
Data set [4] deals with RSV. Description: Virus inhibition activity assay based on cytopathic effects (neutral red), RSV. The class given is cell-based. As to conditions: human respiratory syncytial virus, read-out: RSV (EC50) μM.
The subject of data set [5] is H1N1. Description: microbe, parasite or virus in culture. The format is cell-based. Conditions: Influenza A virus, H1N1, read-out: H1N1 (EC50) μM.
For data set [6], the system named is CoxB3. As to the kind of experiment: Virus inhibition activity assay based on cytopathic effects (neutral red), CoxB3. Conditions: read-out: CoxB3 (EC50) μM. The format is cell-based.
Data set [7] is described as follows: 50% toxic concentration on cell (TC50), neutral red.
Data set [8] relates to EV71. Description: Virus inhibition activity assay based on cytopathic effects (neutral red), EV71. Conditions: Enterovirus A, EV71, read-out: EV71 (EC50) μM. The format is cell-based.

As a reminder, the EC50 is the concentration that produces a half-maximal response. As a reminder, the CC50 is the concentration at which the toxic effect on the cells reaches its halfway point. Low values mean greater toxicity to the cells, high ones lower toxicity to the cells.

Take `COC1C(=O)N(Cc2ccccc2)c2ccc(Cl)cc2C1(O)c1ccccc1` (centres unmarked) [Example 29]: the EC50 in data set [1] lay within 50 to 120 µM; in data set [2] it was 0.05 to 5 µM; in data set [3] it was 0.05 to 5 µM; in data set [4], 0.05 to 5 µM; in data set [5], 5 to 50 µM; in data set [6], 0.05 to 5 µM. Moreover, in data set [8], the EC50 was 5 to 50 µM. Further, in data set [7], the CC50 fell in the range of 50 to 100 µM.
